From patent US10829798B2, “DNA-linked enzyme-coupled assays” (THE REGENTS OF THE UNIVERSITY OF CALIFORNIA, priority 2014, dated 2020)

Legend:
[1] = tested on: OleD; details: Williams 2007; Choi 2012; Yang 2005; cited from earlier work
[2] = target: T1, OleD (Streptomyces antibioticus, UniProt Q53685, P55A/R82V/R83E/T84P); assay: LCMS analysis of OleD-catalyzed glucosylation in cell-free reactions; format: biochemical; details: equal-molar chemical and UDP-glucose, PURExpress, 3 hours at 37° C.
T1 construct: made in house; host or cells: PURExpress In Vitro Protein Synthesis Kit (NEB E6800L), cell-free transcription/translation, linear DNA with T7 promoter
From the text: Determination of glucosylation was accomplished by means of an LCMS system consisting of an Agilent Technologies 1200 series HPLC with an Agilent Technologies 6520 Accurate Mass qTOF LC/MS. An Eclipse Plus C18 (4.6 mm×100 mm i.d., 3.5-μm packing, Agilent Technologies) reverse-phase column with a guard Zorbax Eclipse Plus C18 column ([…], 5 μm packing, Agilent Technologies) was used for separating the samples. Water+0.1% Formic Acid and Acetonitrile+0.1% Formic Acid were used as mobile phases at a flow rate of 500 μl/min. The elution gradient water/acetonitrile ratio) was ramped as follows: 98:2 (v/v) (0-2 min), 98:2-5:95 (v/v) linearly (2-17 min), 5:95 (v/v) (17-27 min), and 5:95-98-2 (v/v) (27-28 min). Full scanning mode (50-750 m/z) was used for data acquisition in a positive-ion mode, and the operation parameters were as follows: ESI probe capillary voltage, +3.5 kV with a scan rate of 1.01 scans/second. The nebulizer gas flow rate was 7 L/min. During the analysis two references (121.0509 m/z (C5H4N4) and 922.0098 m/z (C18H18O6N3P3F24)) were continuously measured to allow constant mass correction.
Samples were prepared directly from cell-free reactions. Equal-molar amounts of chemical and UDP-glucose were incubated with DNA encoding the glucosyltransferase of interest or water in PURExpress for 3 hours at 37° C. […]

[3] = target: T1, OleD; assay: qPCR DLEnCA, cell-free transcription/translation-derived OleD; format: biochemical; details: OleD DNA 5 nM, UDP-Glc 2 μM, probe 0.2 nM; for recovery of intact probe DNA: chemical 1 mM, low recovery = substrate glucosylated; for significant loss in protection of the DNA probe: flavone 1 mM
Method: (§1) FIG. 4A-FIG. 4D. qPCR DLEnCA and substrate specificity studies. A. Chemicals used as substrates in subsequent assays: (i) known substrates of OleD; (ii) flavone library; (iii) known substrates of GT05 (UGT72B1 (Q9M156)) and GT06 (UGT89B1 (AT1 G73880)). B. DNA encoding OleD (5 nM) was incubated in a cell-free transcription/translation system for 3 hours at 37° C., followed by the addition of chemical (1 mM) and UDP-Glc (2 μM). After a subsequent incubation of 3 hours, TbGT and probe (0.2 nM) were added. After probe purification and MfeI digestion, probe integrity was identified using qPCR. Percent recovery of probe is reported (n=8; error bars=standard error). C. DNA encoding OleD (5 nM) was incubated for 3 hours at 37° C. in a cell-free transcription/translation system, followed by the addition of flavone (1 mM) and UDP-Glc (2 μM). After a subsequent incubation of 3 hours, TbGT and probe (0.2 nM) were added. After probe purification and MfeI addition, probe integrity was identified using qPCR. Percent recovery of probe is reported (n=8; error bars=standard error). D. DNA encoding OleD, GT05, or GT06 (5 nM) were incubated for 3 hours at 37° C. in a cell-free transcription/translation system, followed by the addition of chemical (1 mM) and UDP-Glc (2 μM). After a subsequent incubation of 3 hours, TbGT and probe (0.2 nM) were added. After probe purification and MfeI digestion, probe integrity was identified using qPCR. Percent recovery of probe is reported as a heat map (n=8) (specific recovery figures and percent error can be found in FIG. 16). *=p<0.05 vs. no chemical control.
PCR tubes were used for most reactions. All incubations were performed at 37° C. Assays were initiated upon the addition of linear DNA (5 nM final concentration) to 4 μl PURExpress Solution A and 3 μl PURExpress Solution B. Samples were incubated at 37° C. for 3 hours prior to addition of UDP-Glucose and chemical (1 mM final concentration) in DMSO. Samples were incubated for an additional 3 hours prior to addition of 1 unit T4 Phage β-glucosyltransferase containing 0.2 nM probe. Samples were incubated an additional 3 hours before DNA was purified using the Zymo DNA Clean and Concentrator Kit. Samples were digested overnight with MfeI prior to analysis. Concentration of intact DNA probe was identified using the iQ SYBR Green Supermix (1708880) with probe DNA as standards. qPCR was carried out on the Bio-Rad iQ5 Multicolor Real-Time PCR Detection System using primers P13 and P14 with the following temperatures; 94° C. 30 seconds followed by 40 cycles of 94° C. 10 seconds and 55° C. for 30 seconds. All results were compared to uncut probe DNA that had been carried through the process as negative controls (considered full recovery of probe).
The second DLEnCA workflow developed involved qPCR as a final readout (qPCR DLEnCA, FIG. 1—qPCR workflow). A linear fragment of DNA was modified to contain 5-hm-cytosines throughout. To determine a threshold for probe protection under conditions amenable to the qPCR DLEnCA workflow, UDP-Glc was titrated into mixtures of the cell-free transcription/translation system containing 5-hm-cytosine-modified DNA probe (0.2 nM probe DNA containing 0.1 μM modified 5-hm-cytosines) and TbGT. After digestion with the restriction enzyme MfeI, the amount of intact DNA probe was determined using qPCR (FIG. 3C). […] A threshold for protection was identified at a 20:1 molar ratio of UDP-Glc to total 5-hm-cytosine in probe DNA; this UDP-Glc amount was used as the starting concentration of UDP-Glc for all qPCR experiments. To test the feasibility of qPCR DLEnCA, OleD was again tested upon the substrate kaempferol (FIG. 3D), using DNA encoding a promoter and OleD as starting material. As expected, when all components of the assay were present, 27% of intact probe DNA was recovered. […]

[4] = target: T2, GT05 (UGT72B1 (Q9M156)) (Arabidopsis thaliana, UniProt Q9M156); assay: qPCR DLEnCA, cell-free transcription/translation-derived GT05; format: biochemical; details: GT05 DNA 5 nM, chemical 1 mM, UDP-Glc 2 μM, probe 0.2 nM; low recovery = substrate glucosylated
T2 construct: made in house; host or cells: PURExpress In Vitro Protein Synthesis Kit (NEB E6800L), cell-free transcription/translation, linear DNA amplified from pET15b construct
T2 sequence (Q9M156 1-480): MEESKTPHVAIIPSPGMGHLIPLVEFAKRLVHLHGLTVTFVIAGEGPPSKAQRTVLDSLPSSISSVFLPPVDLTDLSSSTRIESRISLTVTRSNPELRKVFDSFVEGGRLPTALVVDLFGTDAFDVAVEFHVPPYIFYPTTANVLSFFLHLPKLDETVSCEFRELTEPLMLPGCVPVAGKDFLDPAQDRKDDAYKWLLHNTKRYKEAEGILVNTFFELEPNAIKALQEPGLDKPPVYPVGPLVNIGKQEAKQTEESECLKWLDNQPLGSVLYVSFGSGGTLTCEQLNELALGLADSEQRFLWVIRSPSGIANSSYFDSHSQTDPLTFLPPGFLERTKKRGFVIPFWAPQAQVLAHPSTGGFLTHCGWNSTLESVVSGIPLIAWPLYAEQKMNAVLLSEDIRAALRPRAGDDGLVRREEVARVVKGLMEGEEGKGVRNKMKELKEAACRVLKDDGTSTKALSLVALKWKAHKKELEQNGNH
Method: as §1
PCR tubes were used for most reactions. All incubations were performed at 37° C. Assays were initiated upon the addition of linear DNA (5 nM final concentration) to 4 μl PURExpress Solution A and 3 μl PURExpress Solution B. Samples were incubated at 37° C. for 3 hours prior to addition of UDP-Glucose and chemical (1 mM final concentration) in DMSO. Samples were incubated for an additional 3 hours prior to addition of 1 unit T4 Phage β-glucosyltransferase containing 0.2 nM probe. […]

[5] = target: T3, GT06 (UGT89B1 (AT1G73880)) (Arabidopsis thaliana, UniProt Q9C9B0); assay: qPCR DLEnCA, cell-free transcription/translation-derived GT06; format: biochemical; details: GT06 DNA 5 nM, chemical 1 mM, UDP-Glc 2 μM, probe 0.2 nM; low recovery = substrate glucosylated
T3 sequence (Q9C9B0 1-473): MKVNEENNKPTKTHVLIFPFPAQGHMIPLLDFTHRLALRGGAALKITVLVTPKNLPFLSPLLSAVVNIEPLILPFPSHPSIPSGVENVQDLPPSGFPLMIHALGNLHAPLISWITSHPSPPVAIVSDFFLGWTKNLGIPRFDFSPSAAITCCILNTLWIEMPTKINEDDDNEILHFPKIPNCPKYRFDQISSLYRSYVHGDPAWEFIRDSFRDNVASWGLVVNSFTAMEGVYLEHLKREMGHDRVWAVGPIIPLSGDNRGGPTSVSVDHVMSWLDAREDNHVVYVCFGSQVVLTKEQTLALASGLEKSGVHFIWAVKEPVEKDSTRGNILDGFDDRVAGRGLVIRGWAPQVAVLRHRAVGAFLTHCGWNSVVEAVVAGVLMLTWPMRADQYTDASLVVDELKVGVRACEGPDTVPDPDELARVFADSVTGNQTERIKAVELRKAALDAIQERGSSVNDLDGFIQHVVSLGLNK
Method: as §1, with “After probe purification and MfeI digestion, probe integrity was identified using qPCR. Percent recovery of probe is reported as a heat map (n=8) (specific recovery figures and percent error can be found in FIG. 16). *=p<0.05 vs. no chemical control.” left out

T1 sequence (Q53685 other isoform, or with tags, fused parts or gaps P55A/R82V/R83E/T84P): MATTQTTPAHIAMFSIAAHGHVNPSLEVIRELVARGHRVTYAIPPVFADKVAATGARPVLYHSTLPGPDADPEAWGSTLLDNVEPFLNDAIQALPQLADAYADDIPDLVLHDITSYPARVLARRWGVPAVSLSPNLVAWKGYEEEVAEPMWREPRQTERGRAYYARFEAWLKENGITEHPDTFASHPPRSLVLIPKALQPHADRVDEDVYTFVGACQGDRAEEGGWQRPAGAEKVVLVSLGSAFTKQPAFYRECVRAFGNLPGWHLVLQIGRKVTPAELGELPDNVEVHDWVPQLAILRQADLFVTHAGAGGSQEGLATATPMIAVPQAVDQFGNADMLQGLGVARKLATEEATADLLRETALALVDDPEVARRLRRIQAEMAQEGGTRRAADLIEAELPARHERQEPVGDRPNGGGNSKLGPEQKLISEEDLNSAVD

SMILES | OleD substrate quality reported in previous studies [1] | recovery of intact probe DNA [3] [%] | further results
O=c1cc(-c2ccc(O)cc2)oc2cc(O)cc(O)c12 [II, apigenin] | slower rate or with less efficiency than with (I) | 42 | identification as OleD substrate by LCMS [2]: identified the chemicals as substrates
Cc1cc(=O)oc2cc(O)ccc12 [III, 4-methylumbelliferone] | slower rate or with less efficiency than with (I) | 60 | identification as OleD substrate by LCMS [2]: identified the chemicals as substrates
O=C(O)Cc1cc(=O)oc2cc(O)ccc12 [IV, 7-hydroxycoumarin-4-acetic acid] | very weak substrates | 82 | 
O=c1cc(-c2ccccc2)oc2cc(O)ccc12 [IX, 7-hydroxyflavone] |  | 39 | 
O=C(O)c1cc2ccc(O)cc2oc1=O [V, 7-hydroxycoumarin-3-carboxylic acid] | very weak substrates | 97 | 
O=c1c(O)c(-c2ccccc2)oc2ccccc12 [VI, 3-hydroxyflavone] |  | 42 | 
O=c1cc(-c2ccc(O)cc2)oc2ccccc12 [VII, 4-hydroxyflavone] |  |  | significant loss in protection of the DNA probe [3]: not the case
O=c1cc(-c2ccccc2)oc2cccc(O)c12 [VIII, 5-hydroxyflavone] |  |  | significant loss in protection of the DNA probe [3]: not the case
O=C(O)c1cccc(O)c1 [X, 3-hydroxybenzoic acid] |  |  | recovery of probe [4]: 33%
O=C(O)c1ccc(O)c(O)c1 [XII, 3,4-dihydroxybenzoic acid] |  |  | recovery of probe [5]: 30%; recovery of probe [4]: 40%
